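Values below derive from 48-hour exposures of cells grown in 96-well plates, with endpoints linearly interpolated between the two concentrations bracketing the appropriate inhibition level. The concentration for 50% growth inhibition is given as GI50.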 Calls of active or inactive are those of the source. No stated cut-off is given here; in the data, active = GI50 up to about 1.1 µM and inactive = higher.
Columns and labels:
Experiment in all cases: DTP human tumour cell line panel, 48 h
[1] = tested on: MDA-MB-231
[2] = tested on: EKVX
[3] = tested on: SW-620
[4] = tested on: SNB-19
[5] = tested on: SNB-75
[6] = tested on: SF-295
[7] = tested on: OVCAR-4
[8] = tested on: MCF7
[9] = tested on: SR
[10] = tested on: 786-0
[11] = tested on: CCRF-CEM
[12] = tested on: KM12
[13] = tested on: U-251
[14] = tested on: OVCAR-3
[15] = tested on: COLO 205
[16] = tested on: NCI-H226
[17] = tested on: A549
[18] = tested on: SN12C
[19] = tested on: DU-145
[20] = tested on: PC-3
[21] = tested on: HCT-116
[22] = tested on: SK-MEL-28
[23] = tested on: HCT-15
[24] = tested on: SK-OV-3
[25] = tested on: Malme-3M
[26] = tested on: Hs-578T
[27] = tested on: A498
[28] = tested on: CAKI-1
[29] = tested on: HT-29
[30] = tested on: M14
[31] = tested on: BT-549
[32] = tested on: SF-268
[33] = tested on: OVCAR-5
[34] = tested on: HL-60
[35] = tested on: UO-31
[36] = tested on: NCI-H460
[37] = tested on: IGROV-1
[38] = tested on: HOP-92
[39] = tested on: MDA-N
[40] = tested on: HOP-62
[41] = tested on: T47D
[42] = tested on: MDA-MB-435
[43] = tested on: NCI/ADR-RES
[44] = tested on: SF-539
[45] = tested on: UACC-257
[46] = tested on: OVCAR-8
[47] = tested on: SK-MEL-5
[48] = tested on: RXF 393
[49] = tested on: NCI-H23
[50] = tested on: RPMI-8226
[51] = tested on: K562
[52] = tested on: SK-MEL-2
[53] = tested on: UACC-62
[54] = tested on: TK-10
[55] = tested on: ACHN
[56] = tested on: MOLT-4
[57] = tested on: NCI-H522
[58] = tested on: LOX IMVI
[59] = tested on: HCC 2998

Cc1cc(C)c2c(O)c(S(=O)(=O)c3ccc(Cl)cc3)c(=O)oc2c1
GI50 [1]: 78.7 µM (inactive) | GI50 [2]: 22.7 µM (inactive) | GI50 [3]: 68.7 µM (inactive) | GI50 [4]: 52.1 µM (inactive) | GI50 [5]: 45 µM (inactive) | GI50 [6]: 36.5 µM (inactive) | GI50 [7]: 41.7 µM (inactive) | GI50 [8]: 50.6 µM (inactive) | GI50 [9]: 82.4 µM (inactive) | GI50 [10]: 78.2 µM (inactive) | GI50 [11]: 42.5 µM (inactive) | GI50 [12]: 36.1 µM (inactive) | GI50 [13]: 37.7 µM (inactive) | GI50 [14]: 40 µM (inactive) | GI50 [15]: > 100 µM (inactive) | GI50 [16]: 24.3 µM (inactive) | GI50 [17]: 46.3 µM (inactive) | GI50 [18]: 65.3 µM (inactive) | GI50 [19]: 84.9 µM (inactive) | GI50 [20]: 49 µM (inactive) | GI50 [21]: 53.5 µM (inactive) | GI50 [22]: 51.9 µM (inactive) | GI50 [23]: 49.7 µM | GI50 [24]: 70.8 µM (inactive) | GI50 [25]: 59.7 µM (inactive) | GI50 [26]: 39.4 µM (inactive) | GI50 [27]: > 100 µM (inactive) | GI50 [28]: 72.6 µM (inactive) | GI50 [29]: 95.3 µM (inactive) | GI50 [30]: 34.3 µM (inactive) | GI50 [31]: 67.9 µM (inactive) | GI50 [32]: 40.2 µM (inactive) | GI50 [33]: 93.1 µM (inactive) | GI50 [34]: 52.8 µM (inactive) | GI50 [35]: 50.8 µM (inactive) | GI50 [36]: 52.2 µM (inactive) | GI50 [37]: 31.7 µM (inactive) | GI50 [38]: 65.6 µM (inactive) | GI50 [39]: 79.1 µM (inactive) | GI50 [40]: 61.8 µM (inactive) | GI50 [41]: 99.8 µM (inactive) | GI50 [42]: 51.8 µM (inactive) | GI50 [43]: 26.2 µM (inactive) | GI50 [44]: > 100 µM (inactive) | GI50 [45]: > 100 µM (inactive) | GI50 [46]: 29.2 µM (inactive) | GI50 [47]: 60 µM (inactive) | GI50 [48]: > 100 µM (inactive) | GI50 [49]: 84.1 µM (inactive) | GI50 [50]: 60.1 µM (inactive) | GI50 [51]: 55.6 µM (inactive) | GI50 [52]: 32.7 µM (inactive) | GI50 [53]: 58.6 µM (inactive)

O=C1CSC(c2ccc(Cl)cc2)N1c1ccc(-n2c(-c3ccccc3)nc3ccccc3c2=O)cc1 (stereo not given)
GI50 [1]: 33.2 µM (inactive) | GI50 [2]: > 100 µM (inactive) | GI50 [3]: 76 µM (inactive) | GI50 [4]: > 100 µM (inactive) | GI50 [54]: > 100 µM (inactive) | GI50 [5]: 7.64 µM (inactive) | GI50 [6]: 46.1 µM (inactive) | GI50 [7]: 12.9 µM (inactive) | GI50 [55]: > 100 µM (inactive) | GI50 [8]: 30.8 µM (inactive) | GI50 [9]: 77.4 µM (inactive) | GI50 [10]: 87.1 µM (inactive) | GI50 [11]: 45.7 µM (inactive) | GI50 [12]: 24.4 µM (inactive) | GI50 [13]: 88.5 µM (inactive) | GI50 [14]: > 100 µM (inactive) | GI50 [15]: > 100 µM (inactive) | GI50 [16]: > 100 µM (inactive) | GI50 [17]: 60.8 µM (inactive) | GI50 [18]: > 100 µM (inactive) | GI50 [19]: > 10 µM (inactive) | GI50 [20]: 53.8 µM (inactive) | GI50 [21]: 34.3 µM (inactive) | GI50 [22]: > 100 µM (inactive) | GI50 [23]: 20.4 µM | GI50 [24]: > 100 µM (inactive) | GI50 [25]: 48.9 µM (inactive) | GI50 [26]: 52.7 µM (inactive) | GI50 [27]: 83.4 µM (inactive) | GI50 [28]: > 100 µM (inactive) | GI50 [29]: 84.7 µM (inactive) | GI50 [30]: > 100 µM (inactive) | GI50 [31]: > 100 µM (inactive) | GI50 [56]: 21.2 µM (inactive) | GI50 [32]: 88.1 µM (inactive) | GI50 [33]: > 100 µM (inactive) | GI50 [35]: 5.48 µM (inactive) | GI50 [36]: 36.5 µM (inactive) | GI50 [37]: 31.9 µM (inactive) | GI50 [38]: 10.3 µM (inactive) | GI50 [39]: > 100 µM (inactive) | GI50 [40]: > 100 µM (inactive) | GI50 [41]: 8.36 µM (inactive) | GI50 [42]: 56 µM (inactive) | GI50 [43]: 23.8 µM (inactive) | GI50 [44]: > 100 µM (inactive) | GI50 [45]: > 100 µM (inactive) | GI50 [46]: > 100 µM (inactive) | GI50 [47]: 54.7 µM (inactive) | GI50 [57]: 25.9 µM (inactive) | GI50 [49]: > 100 µM (inactive) | GI50 [50]: > 100 µM (inactive) | GI50 [51]: 36.8 µM (inactive) | GI50 [52]: > 100 µM (inactive) | GI50 [53]: 19.8 µM (inactive) | GI50 [58]: 50.8 µM (inactive) | GI50 [59]: 34.5 µM (inactive)
